Consider eight molecules from patent publication US8362001B2, “Azetidinyl diamides as monoacylglycerol lipase inhibitors” (Janssen Pharmaceutica NV, priority 2009, dated 2013).

As usually defined, the Kd is a measure of binding affinity in units of concentration. Read a high Kd as weaker binding. Broadly, the IC50 is the midpoint of a concentration-inhibition curve. The low end stands for inhibition by little substance, the high end for a need for much substance.

Residue numbers refer to the chain shown, from its start.

One assay has as its system rat. The experiment in a line: CFA-induced paw radiant heat hypersensitivity. The class given is in vivo. The note with it: 30 mg/kg p.o., HPβCD, last time point 300 min, group mean values. The protocol:
Each rat was placed in a test chamber on a warm glass surface and allowed to acclimate for approximately 10 min. A radiant thermal stimulus (beam of light) was then focused through the glass onto the plantar surface of each hind paw in turn. The thermal stimulus was automatically shut off by a photoelectric relay when the paw was moved or when the cut-off time was reached (20 sec for radiant heat at ˜5 amps). An initial (baseline) response latency to the thermal stimulus was recorded for each animal prior to the injection of complete Freund's adjuvant (CFA). 24 h following intraplantar CFA injection, the response latency of the animal to the thermal stimulus was then re-evaluated and compared to the animal's baseline response time. […] Post-compound treatment withdrawal latencies were assessed at fixed time intervals, typically 30, 60, 120, 180, and 300 min.
The percent reversal (% R) of hypersensitivity was calculated in one of two different ways: 1) using group mean values or 2) using individual animal values. […]
Method 1. For all compounds, the % R of hypersensitivity was calculated using the mean value for groups of animals at each time point according to the following formula: % reversal=[(group treatment response−group CFA response)/(group baseline response−group CFA response)]×100 Results are given for the maximum % reversal observed for each compound at any time point tested. […]

In the next assay the target is T1, mutant MGL (Homo sapiens, UniProt Q99685, L169S/L176S).
T1 sequence (Q99685 1-303 L169S/L176S): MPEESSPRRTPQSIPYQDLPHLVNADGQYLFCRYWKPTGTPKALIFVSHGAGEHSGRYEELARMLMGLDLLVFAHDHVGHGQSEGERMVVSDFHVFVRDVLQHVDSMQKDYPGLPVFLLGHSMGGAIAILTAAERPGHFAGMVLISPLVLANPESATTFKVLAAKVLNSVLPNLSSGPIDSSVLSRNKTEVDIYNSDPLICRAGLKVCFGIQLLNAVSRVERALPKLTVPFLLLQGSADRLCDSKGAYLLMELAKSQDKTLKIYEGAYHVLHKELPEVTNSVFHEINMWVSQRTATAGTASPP
The experiment in a line: MGL ThermoFluor assay - mutant. In general terms: DSF heats the sample and reads unfolding from a dye or from intrinsic fluorescence.

Assay [1] has as its target T2, purified wild type MGL (wt-MGLL 6H-11-313) (Homo sapiens, UniProt Q99685).
T2 sequence (Q99685 1-303): T1 sequence (Q99685 1-303 L169S/L176S) with S169L, S176L
Briefly: biochemical.

The next assay deals with T3, MGL (Rattus norvegicus, UniProt Q8R431).
T3 construct: one g rat brain was homogenized using a Polytron homogenizer; from tissue; host or cells: rat brain homogenate
T3 sequence (Q8R431 1-303): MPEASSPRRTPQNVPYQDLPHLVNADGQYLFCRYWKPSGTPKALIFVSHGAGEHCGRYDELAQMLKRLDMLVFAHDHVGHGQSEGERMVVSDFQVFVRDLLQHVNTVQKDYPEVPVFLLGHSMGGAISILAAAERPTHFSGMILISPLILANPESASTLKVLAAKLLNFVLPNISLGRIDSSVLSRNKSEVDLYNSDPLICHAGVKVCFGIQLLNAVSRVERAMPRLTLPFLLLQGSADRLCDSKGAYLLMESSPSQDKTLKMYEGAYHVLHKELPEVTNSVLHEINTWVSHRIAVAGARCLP
The experiment in a line: 2-AG accumulation assay in rat brain homogenate. The class given is biochemical. The settings on record: compound 1 μM, percent vehicle = 2-AG accumulation with compound / in vehicle x 100, read-out: Rat Brain 2AG % VehCntrl (%) @1 μM.

Protocol for mutant MGL: The ThermoFluor (TF) assay is a 384-well plate-based binding assay that measures thermal stability of proteins^1,2. […] TF dye used in all experiments was 1,8-ANS (Invitrogen: A-47). Final TF assay conditions used for MGL studies were 0.07 mg/ml of mutant MGL, 100 μM ANS, 200 mM NaCl, 0.001% Tween-20 in 50 mM PIPES (pH=7.0).
Screening compound plates contained 100% DMSO compound solutions at a single concentration. […] Columns 12 and 24 were used as DMSO reference and contained no compound. […] Following compound dispension, protein and dye solutions were added to achieve the final assay volume of 3 μL.
Bar-coded assay plates were robotically loaded onto a thermostatically controlled PCR-type thermal block and then heated from 40 to 90° C. degrees at a ramp-rate of 1° C./min for all experiments. Fluorescence was measured by continuous illumination with UV light (Hamamatsu LC6), supplied via fiber optics and filtered through a band-pass filter (380-400 nm; >60D cutoff). Fluorescence emission of the entire 384-well plate was detected by measuring light intensity using a CCD camera (Sensys, Roper Scientific) filtered to detect 500±25 nm, resulting in simultaneous and independent readings of all 384 wells. A single image with 20-sec exposure time was collected at each temperature, and the sum of the pixel intensity in a given area of the assay plate was recorded vs temperature and fit to standard equations to yield the Tm^1. • 1.
For some experiments, quantitative NMR spectroscopy (qNMR) was used to measure concentration of the initial 100% DMSO compound solutions and, using the same fitting method, qKd values were determined

`C/C(=C\c1ccc(Cl)cc1)c1c(C)c(C(=O)N2CC(N3CCN(C(=O)c4nccs4)CC3)C2)nn1-c1ccc(Cl)cc1Cl` [Cpd 1010]: the inhibition in vivo at 30 mg/kg in the assay with rat (Rattus norvegicus, po, 5 h, read-out: Method 1: peak % reversal) was 23.4%.

For the molecule `O=C(c1ccc(-c2cccc(C(F)(F)F)c2)c(Cl)c1)N1CC(N2CCN(C(=O)c3cscn3)CC2)C1` [Cpd 1102], in the assay on rat, the “Method 1: peak % reversal” value is reported as 38%.

With `O=C(c1ccccc1)N1CCN(C2CN(C(=O)c3ccc4c(c3)c(F)cn4-c3ccc(F)cc3)C2)CC1` [Cpd 574, 3-Fluoro-1-(4-fluorophenyl)-5-({3-[4-(phenylcarbonyl)piperazin-1-yl]azetidin-1-yl}carbonyl)-1H-indole], at mutant MGL, binding was put at a Kd of 48 nM. In addition, the concentration for half-maximal inhibition (IC50) in assay [1] is 49 nM.

For the molecule `Cc1cn(-c2ccc(F)c(F)c2)c2ccc(C(=O)N3CCN(C4CN(C(=O)c5ccc[nH]5)C4)CC3)cc12` [Cpd 1219, 1-(3,4-Difluorophenyl)-3-methyl-5-({4-[1-(1H-pyrrol-2-ylcarbonyl)azetidin-3-yl]piperazin-1-yl}carbonyl)-1H-indole], the Kd on mutant MGL was 25 nM. This molecule registered an IC50 in assay [1] of 235 nM.

For the molecule `O=C(c1ccc2c(ccn2-c2ccc(C(F)(F)F)cc2)c1)N1CCN(C2CN(C(=O)c3cscn3)C2)CC1` [Cpd 1337, 5-({4-[1-(1,3-Thiazol-4-ylcarbonyl)azetidin-3-yl]piperazin-1-yl}carbonyl)-1-[4-(trifluoromethyl)phenyl]-1H-indole], at mutant MGL, the dissociation constant Kd amounted to 40 nM. In assay [1], this molecule yielded an IC50 of under 5 nM. For the molecule `O=C(c1ccc[nH]1)N1CC(N2CCN(C(=O)c3cc4cc(C(F)(F)F)ccc4s3)CC2)C1` [Cpd 722, 1-[1-(1H-Pyrrol-2-ylcarbonyl)azetidin-3-yl]-4-{[5-(trifluoromethyl)-1-benzothiophen-2-yl]carbonyl}piperazine], on MGL, the activity at 1 µM stood at 240%.

`O=C(c1ccc(-c2cccc(C(F)(F)F)c2)cc1)N1CC(N2CCN(C(=O)c3ccc(F)s3)CC2)C1` [Cpd 1336, 1-[(5-Fluorothiophen-2-yl)carbonyl]-4-(1-{[3′-(trifluoromethyl)biphenyl-4-yl]carbonyl}azetidin-3-yl)piperazine]: binding at mutant MGL was characterised by a dissociation constant (Kd) of 2 nM. Further, the IC50 in assay [1] is under 5 nM.

As to `Cc1nc(C(=O)N2CCN(C3CN(C(=O)c4ccc(-c5cccc(C(F)(F)F)c5)cc4)C3)CC2)cs1` [Cpd 1217, 1-[(2-Methyl-1,3-thiazol-4-yl)carbonyl]-4-(1-{[3′-(trifluoromethyl)biphenyl-4-yl]carbonyl}azetidin-3-yl)piperazine], the dissociation constant Kd on mutant MGL was 104 nM. Moreover, in assay [1], half-maximal inhibition (IC50) required 220 nM.
